Data: ChEMBL document CHEMBL1158870, “Antitumor agents. 180. Chemical Studies and cytotoxic evaluation of cumingianosides and cumindysoside A, antileukemic triterpene glucosides with a 14,18-cycloapotirucallane skeleton” (1997)

Experiments:
[1] = tested on: HT-29; test: Cytotoxicity against human HT29 cells by SRB assay; format: functional
[2] = tested on: SW-620; test: Cytotoxicity against human SW620 cells by SRB assay; format: functional
[3] = Cytotoxicity against human melanoma cells by SRB assay; format: functional; details: Melanoma cell
[4] = Cytotoxicity against human renal cancer cells by SRB assay; format: functional; details: Cancer cell lines
[5] = tested on: NSCLC; test: Cytotoxicity against human NSCLC cells by SRB assay; format: functional
[6] = Cytotoxicity against human ovarian cancer cells by SRB assay; format: functional; details: Cancer cell lines
[7] = tested on: KM12; test: Cytotoxicity against human KM12 cells by SRB assay; format: functional
[8] = tested on: COLO 205; test: Cytotoxicity against human COLO205 cells by SRB assay; format: functional
[9] = tested on: HCT-15; test: Cytotoxicity against human HCT15 cells by SRB assay; format: functional
[10] = Cytotoxicity against human Colon cancer cells by SRB assay; format: functional; details: Cancer cell lines
[11] = Cytotoxicity against human CNS cancer cells by SRB assay; format: functional; details: Cancer cell lines
[12] = tested on: HCT-116; test: Cytotoxicity against human HCT116 cells by SRB assay; format: functional
[13] = tested on: Leukemia cell; test: Cytotoxicity against human Leukemia cells by SRB assay; format: functional
[14] = tested on: HCC 2998; test: Cytotoxicity against human HCC2998 cells by SRB assay; format: functional
[15] = tested on: M14; test: Cytotoxicity against human M14 cells by SRB assay; format: functional
[16] = tested on: PC-3; test: Cytotoxicity against human PC3 cells by SRB assay; format: functional
[17] = tested on: A549; test: Cytotoxicity against human A549 cells by SRB assay; format: functional
[18] = Cytotoxicity against human MCF7/ADR cells by SRB assay; format: functional; details: NCI/ADR-RES
[19] = tested on: EKVX; test: Cytotoxicity against human EKVX cells by SRB assay; format: functional
[20] = tested on: SF-268; test: Cytotoxicity against human SF268 cells by SRB assay; format: functional
[21] = tested on: MCF7; test: Cytotoxicity against human MCF7 cells by SRB assay; format: functional
[22] = tested on: MOLT-4; test: Cytotoxicity against human MOLT4 cells by SRB assay; format: functional
[23] = tested on: T47D; test: Cytotoxicity against human T47D cells by SRB assay; format: functional
[24] = tested on: Malme-3M; test: Cytotoxicity against human MALME-3M cells by SRB assay; format: functional
[25] = tested on: NCI-H322M; test: Cytotoxicity against human NCI-H322M cells by SRB assay; format: functional
[26] = tested on: MDA-MB-231; test: Cytotoxicity against human MDA-MB-231 cells by SRB assay; format: functional
[27] = tested on: OVCAR-8; test: Cytotoxicity against human OVCAR8 cells by SRB assay; format: functional
[28] = tested on: U-251; test: Cytotoxicity against human U251 cells by SRB assay; format: functional
[29] = tested on: OVCAR-5; test: Cytotoxicity against human OVCAR5 cells by SRB assay; format: functional
[30] = tested on: SR; test: Cytotoxicity against human SR cells by SRB assay; format: functional
[31] = Cytotoxicity against human 786-O cells by SRB assay; format: functional; details: 786-0
[32] = tested on: NCI-H23; test: Cytotoxicity against human NCI-H23 cells by SRB assay; format: functional
[33] = tested on: SK-OV-3; test: Cytotoxicity against human SKOV3 cells by SRB assay; format: functional
[34] = tested on: UO-31; test: Cytotoxicity against human UO31 cells by SRB assay; format: functional
[35] = tested on: HOP-92; test: Cytotoxicity against human HOP92 cells by SRB assay; format: functional
[36] = tested on: CAKI-1; test: Cytotoxicity against human Caki1 cells by SRB assay; format: functional
[37] = tested on: SNB-19; test: Cytotoxicity against human SNB19 cells by SRB assay; format: functional
[38] = tested on: NCI-H460; test: Cytotoxicity against human NCI-H460 cells by SRB assay; format: functional
[39] = tested on: BT-549; test: Cytotoxicity against human BT549 cells by SRB assay; format: functional
[40] = tested on: LOX IMVI; test: Cytotoxicity against human LOXIMVI cells by SRB assay; format: functional
[41] = tested on: HOP-62; test: Cytotoxicity against human HOP62 cells by SRB assay; format: functional
[42] = tested on: NCI-H226; test: Cytotoxicity against human NCI-H226 cells by SRB assay; format: functional
[43] = tested on: SK-MEL-28; test: Cytotoxicity against human SK-MEL-28 cells by SRB assay; format: functional
[44] = tested on: CCRF-CEM; test: Cytotoxicity against human CCRF-CEM cells by SRB assay; format: functional
[45] = tested on: DU-145; test: Cytotoxicity against human DU145 cells by SRB assay; format: functional
[46] = tested on: UACC-62; test: Cytotoxicity against human UACC62 cells by SRB assay; format: functional
[47] = tested on: SK-MEL-5; test: Cytotoxicity against human SK-MEL-5 cells by SRB assay; format: functional
[48] = tested on: MDA-MB-435; test: Cytotoxicity against human MDA-MB-435 cells by SRB assay; format: functional
[49] = tested on: SNB-75; test: Cytotoxicity against human SNB75 cells by SRB assay; format: functional
[50] = tested on: OVCAR-4; test: Cytotoxicity against human OVCAR4 cells by SRB assay; format: functional
[51] = tested on: ACHN; test: Cytotoxicity against human ACHN cells by SRB assay; format: functional
[52] = tested on: K562; test: Cytotoxicity against human K562 cells by SRB assay; format: functional
[53] = tested on: UACC-257; test: Cytotoxicity against human UACC257 cells by SRB assay; format: functional
[54] = tested on: NCI-H522; test: Cytotoxicity against human NCI-H522 cells by SRB assay; format: functional
[55] = tested on: IGROV-1; test: Cytotoxicity against human IGROV1 cells by SRB assay; format: functional
[56] = tested on: RXF 393; test: Cytotoxicity against human RXF393 cells by SRB assay; format: functional
[57] = Cytotoxicity against human prostate cancer cells by SRB assay; format: functional; details: Cancer cell lines
[58] = tested on: A498; test: Cytotoxicity against human A498 cells by SRB assay; format: functional
[59] = tested on: OVCAR-3; test: Cytotoxicity against human OVCAR-3 cells by SRB assay; format: functional
[60] = tested on: SK-MEL-2; test: Cytotoxicity against human SK-MEL-2 cells by SRB assay; format: functional
[61] = Cytotoxicity against human HL60(TB) cells by SRB assay; format: functional, HL-60(TB); details: HL-60
[62] = tested on: SN12C; test: Cytotoxicity against human SN12C cells by SRB assay; format: functional
[63] = tested on: SF-295; test: Cytotoxicity against human SF295 cells by SRB assay; format: functional
[64] = tested on: MDA-N; test: Cytotoxicity against human MDA-N cells by SRB assay; format: functional
[65] = tested on: RPMI-8226; test: Cytotoxicity against human RPMI8226 cells by SRB assay; format: functional
[66] = Cytotoxicity against human Hs 578T cells by SRB assay; format: functional
[67] = Cytotoxicity against human breast cancer cells by SRB assay; format: functional; details: Cancer cell lines

For `CC(=O)OC[C@H]1O[C@@H](O[C@@H]2C[C@H]3C(C)(C)[C@H](OC(C)=O)CC[C@]3(C)[C@H]3CC[C@]45C[C@]4(CC[C@H]5[C@@H](C)C[C@@H](O)[C@@H]4OC4(C)C)[C@@]32C)[C@H](O)[C@@H](O)[C@@H]1O` [CUMINGIANOSIDE E], the TGI [1] was 1.7 µM, the TGI [2] was 10 µM and the TGI [3] was 15.4 µM. For the same compound, the TGI [4] was 10 µM, the TGI [5] was 14.5 µM and the TGI [6] was 5.9 µM. For the same compound, the TGI [7] was 3.8 µM, the TGI [8] was 1.8 µM and the TGI [9] was 6 µM. It also gave a TGI [10] of 4.2 µM, a TGI [11] of 7.9 µM and a TGI [12] of 3.5 µM. For the same compound, the TGI [13] was 1.8 µM and the TGI [14] was 2.7 µM.
Compound `CC(=O)OC[C@H]1O[C@@H](O[C@@H]2C[C@H]3C(C)(C)[C@H](OC(C)=O)CC[C@]3(C)[C@H]3CC[C@@H]4[C@]5(CC[C@@]4(C)[C@@]32C)O[C@@H]([C@H](O)C(C)(C)O)C[C@@H]5C)[C@H](O)[C@@H](O)[C@@H]1O` has a GI50 [1] of 1.82 µM, a TGI [1] of 4.3 µM and a GI50 [15] of 5.01 µM. It also gave a GI50 [2] of 10.5 µM, a TGI [2] of 22.9 µM and a GI50 [16] of 3.8 µM. The GI50 [17] was 5.13 µM, the GI50 [18] was 16.2 µM and the GI50 [19] was 9.55 µM. For the same compound, the GI50 [20] was 9.33 µM, the GI50 [21] was 1.07 µM and the GI50 [22] was 3.16 µM. The TGI [3] was 20.7 µM, the GI50 [23] was 5.62 µM and the TGI [4] was 20.5 µM. For the same compound, the GI50 [24] was 10.2 µM, the GI50 [25] was 1.7 µM and the GI50 [26] was 10.2 µM. The GI50 [27] was 9.33 µM, the GI50 [28] was 10.7 µM and the TGI [5] was 21.8 µM. It also gave a GI50 [29] of 5.13 µM, a GI50 [30] of 3.09 µM and a GI50 [31] of 8.71 µM. It also gave a GI50 [32] of 12.9 µM, a GI50 [33] of 7.94 µM and a GI50 [34] of 7.76 µM. It also gave a GI50 [35] of 10 µM, a TGI [6] of 20.1 µM and a GI50 [36] of 25.7 µM. It also gave a GI50 [37] of 12.6 µM, a GI50 [38] of 6.61 µM and a GI50 [39] of 12 µM. It also gave a GI50 [40] of 3.63 µM, a GI50 [41] of 14.1 µM and a GI50 [7] of 2 µM. The TGI [7] was 7.7 µM, the GI50 [42] was 10.7 µM and the GI50 [43] was 10.2 µM. It also gave a GI50 [8] of 4.07 µM, a TGI [8] of 14.3 µM and a GI50 [44] of 3.16 µM. It also gave a GI50 [45] of 10.7 µM, a GI50 [46] of 6.31 µM and a GI50 [9] of 2.19 µM. It also gave a TGI [9] of 5.9 µM, a GI50 [47] of 10.7 µM and a GI50 [48] of 8.32 µM. It also gave a GI50 [49] of 5.13 µM, a TGI [10] of 12.3 µM and a GI50 [50] of 3.39 µM. It also gave a GI50 [51] of 9.33 µM, a TGI [11] of 22.2 µM and a GI50 [52] of 4.47 µM. For the same compound, the GI50 [53] was 11.5 µM, the GI50 [54] was 7.08 µM and the GI50 [55] was 9.55 µM. It also gave a GI50 [12] of 3.8 µM, a TGI [12] of 15.1 µM and a GI50 [56] of 4.07 µM. For the same compound, the TGI [13] was 17.3 µM, the TGI [57] was 18.5 µM and the GI50 [58] was 11.7 µM. The GI50 [59] was 7.08 µM, the GI50 [60] was 6.03 µM and the GI50 [61] was 2.95 µM. It also gave a GI50 [62] of 11.2 µM, a GI50 [14] of 3.63 µM and a TGI [14] of 15.9 µM. It also gave a GI50 [63] of 6.46 µM, a GI50 [64] of 7.08 µM and a GI50 [65] of 3.39 µM. For the same compound, the GI50 [66] was 9.33 µM and the TGI [67] was 21.3 µM.
